{"source": "patent US20200390793A1", "about": "“COMPOSITIONS AND METHODS USING OLEUROPEIN OR CURCUMIN FOR MUSCLE QUALITY AND/OR MUSCLE MASS” (SOCIETE DES PRODUITS NESTLE S.A., priority 2017, published 2020)", "system": "old rats", "assay": "Dietary polyphenol supplementation for 3 months in 20 months-old rats: muscle mass and muscle fiber area (immunofluorescence staining and microscopy)", "type": "in vivo", "conditions": "supplemented diet for 3 months, compared with control and rutin groups", "description": "20 months-old rats were fed either a control diet or the same diet supplemented with curcumin or rutin or oleuropein for 3 months. CON=control diet, RUT=control diet with rutin, OLE=control diet with oleuropein and CUR=control diet with curcumin. Old rats are a good model to assess the effect of nutritional intervention in age related muscle decline. With this model, it can be observed as in human a decrease in muscle mass and function and a change in muscle quality with age. The objective of the study was to determine the effects of curcumin, oleuropein and rutin on muscle quality in old rats and the association with muscle mass. 20 months-old rats have been divided in four groups and received a complete diet supplemented with either curcumin (CUR), oleuropein (OLE) or rutin (RUT) for 3 months. A control group (CON) received cellulose instead of polyphenols. Fiber type was analyzed in muscle by immunofluorescence staining and microscopy. Exact Wilcoxon test associated with Hodges-Lehmann to estimate the difference between groups and Kolmogorov-Smirnov test to assess the difference for the distribution have been performed for statistical analysis."}
{"smiles": "COc1cc(/C=C/C(=O)CC(=O)/C=C/c2ccc(O)c(OC)c2)ccc1O", "note": "[CUR, curcumin]", "values": [{"measurement": "amount of small fibers area (percentage of cells with an area below 700 μm^2, FIG. 3B)", "value": "lower"}, {"measurement": "fiber crossectionnal area (FIG. 3A)", "value": "higher"}, {"measurement": "muscle mass", "value": "higher"}]}
